Reference: PubChem BioAssay (NCI)
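Interpolation was linear, between the two tested concentrations surrounding the appropriate level; five concentrations were tested over 48 hours in 96-well plates. Abbreviation: GI50, concentration required for 50% inhibition of growth. TGI: concentration producing complete growth inhibition.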

How the values were obtained:
Assay in all cases: NCI anticancer screen, dose series, 48 h
BT-549 breast = tested on: BT-549 breast
CCRF-CEM leukemia = tested on: CCRF-CEM leukemia
MDA-MB-435 = tested on: MDA-MB-435
NCI-H460 lung = tested on: NCI-H460 lung
SK-MEL-2 melanoma = tested on: SK-MEL-2 melanoma
SK-MEL-28 melanoma = tested on: SK-MEL-28 melanoma
SK-OV-3 ovarian = tested on: SK-OV-3 ovarian
SNB-19 CNS = tested on: SNB-19 CNS
U251 CNS = tested on: U251 CNS
HL-60(TB) leukemia = tested on: HL-60(TB) leukemia

Structure (SMILES)	TGI (BT-549 breast)	TGI (CCRF-CEM leukemia)	TGI (MDA-MB-435)	TGI (NCI-H460 lung)	TGI (SK-MEL-2 melanoma)	TGI (SK-MEL-28 melanoma)	TGI (SK-OV-3 ovarian)	TGI (SNB-19 CNS)	TGI (U251 CNS)	TGI (HL-60(TB) leukemia)	GI50 (U251 CNS)
CCC1(c2ccc(OC)c(OC)c2)CCN(S(=O)(=O)c2ccc(C)cc2)C1 (stereo unspecified)	> 100 µM	> 100 µM	> 100 µM	> 100 µM	> 100 µM	> 10 µM	> 100 µM	> 100 µM	> 100 µM		
COC(=O)C(=O)C(C(=O)OC)C(=O)C(=O)Nc1cc(Cl)c(C)cc1S(=O)(=O)O (stereo unspecified)		> 100 µM		> 100 µM	> 100 µM	> 100 µM	> 100 µM	> 100 µM	> 100 µM	> 100 µM	
Cc1cc(C)c(NS(=O)c2ccc(Cl)cc2)c(C)c1 (stereo unspecified)	> 100 µM	> 100 µM	> 100 µM	> 100 µM		> 100 µM		> 100 µM	> 100 µM	> 100 µM	
COC(=O)c1cc(/C=C/C(=O)Cc2ccccc2)cn1S(=O)(=O)c1ccccc1	> 100 µM	> 100 µM		> 100 µM	> 100 µM		> 100 µM	> 100 µM		> 100 µM	
C1=NN2C(c3ccccc3)=NOC2C2C(c3ccccc3)=NOC12 (stereo unspecified)	> 100 µM			> 100 µM			> 100 µM	> 100 µM			
Cc1ccc(S(=O)(=O)c2ccc(C)cc2[N+](=O)[O-])c([N+](=O)[O-])c1		> 100 µM		> 100 µM	> 100 µM	> 100 µM		> 100 µM	> 100 µM		
Cc1c(-c2coc(-c3ccc([N+](=O)[O-])cc3)n2)c(=O)n(-c2ccccc2)n1C		> 100 µM		> 100 µM	> 100 µM	> 100 µM	> 100 µM		> 100 µM	> 100 µM	
COP12(OC)NC(=O)OC1(C(F)(F)F)c1ccccc1O2 (stereo unspecified)		> 100 µM		> 100 µM	> 100 µM	> 100 µM	> 100 µM	> 100 µM		> 100 µM	
CC(C)CCNC(=O)c1ccc(CNC(=O)/C=C/c2ccc3ccccc3c2)cc1			> 100 µM	> 100 µM	> 100 µM	> 100 µM	> 100 µM	> 100 µM	> 100 µM	> 100 µM	
O=C(O)C12C3CCC(C3)C1(C(=O)O)C1CCC2C1 (stereo unspecified)		95 µM		> 100 µM	> 100 µM	> 100 µM	> 100 µM	> 100 µM		> 100 µM	
N#Cc1ccc(C2OCC3CC=CCC3CO2)cc1 (stereo unspecified)		> 100 µM		> 100 µM	> 100 µM	> 100 µM	> 100 µM	> 100 µM	> 100 µM	94.9 µM	
CNC(=O)O/N=C1\N(C)CN(c2ccccc2)C12CCN(CCCC(=O)c1ccc(F)cc1)CC2		> 100 µM	> 100 µM	> 100 µM	> 100 µM	> 100 µM	> 100 µM	> 100 µM	> 100 µM	> 100 µM	
Nc1c(F)c(F)c2c(c1F)N(CCCCCl)c1ccccc1S2	> 100 µM	> 100 µM		> 100 µM	> 100 µM	> 100 µM	> 100 µM	> 100 µM	> 100 µM	> 100 µM	
C1CSCCSCCSCCSCCS1	> 100 µM		> 100 µM	> 100 µM	> 100 µM	> 100 µM	> 100 µM	> 100 µM	> 100 µM	> 100 µM	
CN1C(=O)C(=Cc2ccc(Br)cc2)C(=O)N(C)C1=O	> 100 µM	> 100 µM	> 100 µM	> 100 µM	> 100 µM	> 100 µM	> 100 µM	> 100 µM	> 100 µM		
O=c1cccccc1[O-].O=c1cccccc1[O-].O=c1cccccc1[O-].[Nd+3]		> 100 µM		> 100 µM	97.3 µM		> 100 µM	> 100 µM	> 100 µM	> 100 µM	38.7 µM
N#Cc1c(-c2ccccc2)cn(C(=O)c2ccccc2)c1N		> 100 µM	> 100 µM		> 100 µM	> 100 µM	> 100 µM	> 100 µM	> 100 µM	> 100 µM	
COc1ccccc1N1CCN(S(=O)(=O)c2ccc(Cl)cc2)C1=N	> 100 µM		> 100 µM	> 100 µM	> 100 µM	> 100 µM	> 100 µM	> 100 µM	> 100 µM		
CN1CCS(=O)(=O)NC(Cc2ccccc2)C(=O)N2CCCC2C1=O (stereo unspecified)		> 100 µM			> 100 µM	> 100 µM	> 100 µM	> 100 µM	> 100 µM	> 100 µM	
COc1ccccc1/C=C1\CCC(Cc2ccccc2)(CN(C)C)C1=O (stereo unspecified)	40.5 µM	24.4 µM		12.8 µM	34.8 µM	> 100 µM	> 42.2 µM	> 100 µM	45.5 µM	15.1 µM	
CC(CC(=O)N1C2CC3CCC2(CS1(=O)=O)C3(C)C)[Si](C)(C)C (stereo unspecified)	> 100 µM	> 100 µM	> 100 µM	> 100 µM		> 100 µM		> 100 µM	> 100 µM	> 100 µM	
COC(C)=NCCC1=CCCCC1	> 100 µM		> 100 µM	> 100 µM	> 100 µM	> 100 µM	> 100 µM	> 100 µM	> 100 µM		
c1ccc2cc(C3NCCc4[nH]cnc43)ccc2c1 (stereo unspecified)		91.6 µM		> 100 µM	> 100 µM	> 100 µM	> 100 µM		> 100 µM		
CCC1=CC(OCc2ccccc2)C(CCN(Cc2ccccc2)C(=O)OCc2ccccc2)C1 (stereo unspecified)			32.7 µM	39.7 µM	42.1 µM	37.8 µM	80.6 µM	30.9 µM	62 µM		
O=[N+]([O-])C(C(Cl)=C(Cl)Cl)=C(N1CCCCC1)N1CCCCC1	> 100 µM	> 100 µM		> 100 µM		> 100 µM	> 100 µM	> 100 µM	> 100 µM	> 100 µM	
CC(=O)N1C(c2[nH]c3ccccc3c2Cc2ccccc2)CCN1c1ccccc1 (stereo unspecified)	> 10 µM	> 10 µM	> 10 µM	> 10 µM	> 10 µM	> 10 µM	> 10 µM	> 10 µM		> 10 µM	

Structure (SMILES)	TGI (BT-549 breast)	TGI (CCRF-CEM leukemia)	TGI (MDA-MB-435)	TGI (NCI-H460 lung)	TGI (SK-MEL-2 melanoma)	TGI (SK-MEL-28 melanoma)	TGI (SK-OV-3 ovarian)	TGI (SNB-19 CNS)	TGI (U251 CNS)	TGI (HL-60(TB) leukemia)	GI50 (U251 CNS)
c1ccc2c(c1)nc1ccccn12	> 100 µM	> 100 µM	> 100 µM	> 100 µM		> 100 µM	> 100 µM	> 100 µM	> 100 µM	> 100 µM	
O=C1C(Cl)C(c2ccc(O)cc2)N1n1cnc2ccccc2c1=O (stereo unspecified)		> 100 µM		> 100 µM	> 63.8 µM	70.2 µM	> 100 µM	> 100 µM	> 100 µM	72.3 µM	
N#CCCC(C#N)(C#N)CCC#N				> 100 µM		> 100 µM	> 100 µM	> 100 µM	> 100 µM	> 100 µM	
CCOC(=O)/C=C(/C(=O)OCC)n1ccc(=O)n(Cc2cn(CCCCOC(C)=O)nn2)c1=O	> 100 µM	35.3 µM	> 100 µM	> 100 µM	> 100 µM	> 100 µM	> 100 µM	> 100 µM	> 100 µM		
CC(C)(C)OC(=O)N(O)CCCn1cnc2c(NC3CC3)ncnc21	> 100 µM	> 100 µM	> 100 µM	> 100 µM	> 100 µM	> 100 µM	> 100 µM	> 100 µM	> 100 µM		
CN1N=C(c2ccncc2)OC1c1cccc(F)c1 (stereo unspecified)		> 100 µM	> 100 µM	> 100 µM	> 100 µM	> 100 µM	> 100 µM	> 100 µM	> 100 µM	> 100 µM	
CC(=Nc1ccc(Cl)cc1)c1ccncc1	> 100 µM	> 100 µM	> 100 µM	> 100 µM	> 100 µM	> 100 µM		> 100 µM	> 100 µM		
Cc1ccccc1N(CCC#N)C1=NN(C(=O)CC(=O)Nc2ccc(Cl)cc2)C(c2ccccc2)C1 (stereo unspecified)		> 100 µM		> 100 µM	> 100 µM	> 100 µM	> 100 µM	> 100 µM	> 100 µM	> 100 µM	
COc1ccc(/C(C)=C2\CCCN(Cc3ccccc3)C2)cc1		62.2 µM	51.6 µM	53.5 µM	43.4 µM	58.4 µM	80.3 µM	50.6 µM	40.3 µM	47.5 µM	
CC1(C)CC(=O)c2c(-c3ccc(Cl)cc3)c(C#N)c(=S)n(C3OC(CO)C(O)C(O)C3O)c2C1 (stereo unspecified)	> 100 µM	> 100 µM	80.8 µM	> 100 µM	43.9 µM	> 100 µM		> 100 µM	> 100 µM	> 100 µM	
Cc1n[nH]c(=O)n1/N=C/c1ccco1	> 100 µM	> 100 µM	> 100 µM	> 100 µM	> 100 µM	> 100 µM	> 100 µM	> 100 µM	> 100 µM		
CCOC(=O)c1ccc(N=C2Sc3nc4ccccc4n3C2=Nc2ccc(C(=O)OCC)cc2)cc1		> 100 µM	> 100 µM	69.6 µM	91.5 µM	> 100 µM	> 100 µM	25.2 µM		> 100 µM	
COc1cc2ccnc(C#N)c2cc1OCc1ccccc1		> 100 µM		> 100 µM	> 100 µM	> 100 µM		> 100 µM	> 100 µM		
COc1cccc(CCn2c(N)c(-c3cc(Cl)cc(Cl)c3)c3ccc([N+](=O)[O-])cc3c2=O)c1	> 59.5 µM		> 100 µM	> 30.8 µM	> 31.4 µM	> 100 µM	> 100 µM	> 44 µM	> 49.3 µM	5.37 µM	
Cn1c2ncccc2n2c(=O)cc(O)cc12	> 100 µM	> 100 µM	> 100 µM	> 100 µM	> 100 µM	> 100 µM	> 100 µM	> 100 µM	> 100 µM		
COc1cc(-c2nc(N)c(C#N)c3c2CCS(=O)(=O)c2ccc(C)cc2-3)cc(OC)c1OC	> 100 µM	> 100 µM	> 100 µM	> 100 µM	> 100 µM	> 100 µM		29.5 µM	> 100 µM	> 100 µM	
c1cc2c(cc1C1OCC3C(c4ccc5c(c4)OCO5)OCC13)OCO2 (stereo unspecified)		> 100 µM		> 100 µM	> 100 µM	> 100 µM	> 100 µM	> 100 µM	> 100 µM		
CN1CCCS/C1=C1/SC(=S)N(c2ccccc2)C1=O		> 100 µM		> 100 µM	> 100 µM	> 100 µM	> 100 µM	> 100 µM	> 100 µM	> 100 µM	
COc1ccc(S(=O)(=O)N/N=C(\C)CN2C(=O)c3ccccc3C2=O)cc1OC		> 100 µM		> 100 µM	> 100 µM	> 100 µM	> 100 µM	> 100 µM	> 100 µM	> 100 µM	
CN(C)CC1(Cc2ccccc2)CC/C(=C\c2ccccc2)C1=O (stereo unspecified)		59.9 µM		68.3 µM	> 100 µM	> 100 µM		63.3 µM	> 100 µM	48.7 µM	
N#Cc1c(C#N)c(SSc2c(C#N)c(C#N)c(N)n2-c2cccc3ccccc23)n(-c2cccc3ccccc23)c1N	12.6 µM		36.5 µM	> 100 µM	34.8 µM	> 100 µM	54.8 µM	46.4 µM	40 µM		
CC1(C)N=C(C(N)=O)c2ncn(Cc3ccccc3)c2N1		> 100 µM	> 100 µM	> 100 µM	> 100 µM	> 100 µM	> 100 µM	> 100 µM	> 100 µM	> 100 µM	
O=C1CCC(=O)c2ccccc2N1		> 100 µM		> 100 µM	> 100 µM	> 100 µM	> 100 µM	> 100 µM	> 100 µM	> 100 µM	
COc1cc(C2C(C(=O)NCc3ccccc3)=C(C)NC(C)=C2C(=O)NCc2ccccc2)ccc1O		98.3 µM		> 100 µM	61.2 µM	> 100 µM		> 100 µM	83.2 µM	66.5 µM	
CC1=CC2(C)C=C[C@@H]1C(=O)[C@@]1(C)CC[C@@](O)(C(C)C)[C@H]1CC2	60.7 µM	53.4 µM	43.2 µM	32.5 µM	77 µM	41.7 µM	54.6 µM	65.7 µM	33.1 µM		
